Patent US4835160A, “Derivatives of pyridoindole, having anti-tumor properties” (Sanofi, priority 1986, dated 1989)
Where two headings read alike, the source gives them in different places.

Experiments:
in vivo [1] = assay: in vivo; parameters: species or system CDF1 hybrid mice; details: mouse, ip, 50 mg/kg
Description: The compounds of the invention benefit from a good tolerance and a weak toxicity.
Thus the administration, to healthy CDF1 hybrid mice, in a single injection by intraperitoneal route, of the compounds under test, has enabled it to be established that the product is perfectly tolerated at a high dosage since the survival rate of the animals of the experiment was 100 out of 100 thirteen days after administration.

in vivo [2] = assay: in vivo; parameters: species or system female CDF1 hybrid mice; details: mouse, iv
Procedure: In addition the administration, to healthy female CDF1 hybrid mice, in a single injection by intravenous route with a perfusor, lasting 4 minutes, of the compounds under test in solution in physiological serum at a rate of 0.1 ml of solution per 10 g weight of the animals has enabled it to be established that the compounds are also well tolerated at a high dosage in these conditions.

[3] = tested on: leukemia tumour line L 1210; assay: In vitro cytotoxic activity on leukemia tumour line L 1210; format: cell-based; details: L 1210, 48 hours contact, 37° C., read-out: I D 50 (concentration which inhibits the proliferation of the cells by 50%)
Procedure: (1) In vitro: ([…] et al., Chem. Biol. Interaction, 1979, 25, 45-58). The cytotoxic activity of the compounds of the invention has been evaluated by in vitro tests. These tests consist of adding increasing concentrations of the compound under test to a cellular culture of the leukemia tumour line L 1210 in an exponential phase of growth. The cellules are incubated at 37° C. in a CO2 incubator and counted every 24 hours. The calculation of the I D 50 (concentration of the product, expressed in 1^-1 micromole, which inhibits the proliferation of the cells by 50%) is made after 48 hours contact.

leukemia P 388 [4] = assay: Test of leukemia P 388; IP/IP, D1-5; format: in vivo, CDF1 hybrid mice; details: D1-D5; for Number of survivors: day D30; for T/C %: survival time
Procedure: (2) In vivo: (GERAN et al., Cancer Chemother., 1972, 2, 07-57):
(§1) The antitumour activity was tested in vivo on various tumours inoculated in various ways according to the following general protocol:
(§2) All the male or female mice are inoculated on day D0 with a known quantity of viable tumour cells for ascitic tumours or with a known tumour fragment for solid tumours.
(§3) They are then distributed into various groups. Each group, corresponding to the animals treated by the product under test, is made up of 10 mice. The product under test is dissolved in distilled water and it is administered n times (Dx-Dy), n, y, and x varying according to the protocol chosen, at the rate of 0.1 ml of solution per 10 g by weight of mice treated and at specific doses for each protocol.
(§4) The "negative control" group, corresponding to the animals which are not treated by the product, contains 2√N animals, N being equal to or greater than the total number of mice treated by the product in the same experiment.
(§5) Finally, the tests can also be carried out at the same time as the study of a group called "positive control", of ten animals, which is treated by a molecule, known for its antitumour activity and which can vary according to the protocol chosen, in the same conditions as the groups treated by the product under test.
(§6) The antitumour activity is evaluated, in the case of ascitic tumours, by considering the increase in the survival time of the animals treated in comparison to that of the animals in the "negative control" group, according to the formula: [formula]
The criterion for activity varies according to the protocol.
(§7) Also, a product is considered as toxic at the dose studied when this T/C value is equal to or less than 85%. In addition, a product is also considered as toxic at the dose studied when the weight variation, expressed in grams and calculated by the formula: […]
"Average weight of the group measured on day 5--Average weight of the same group measured on day 1"
is equal to or less than 4 g.
(a) Test of lelukemia P 388; IP/IP, D1-5 (GERAN et al., Cancer Chemother., 1972, 2, 07-57).
(§8) The tests are carried out with CDF1 hybrid mice inoculated by intraperitoneal route with 10^6 leukemia cells from the P 388 line. The compound under test is administered for 5 successive days (D1-D5) by intraperitoneal route. The positive control for the test is 5-fluorouracile which is administered in the same conditions. The number of surviving animals is evaluated on day D30.

melanoma B 16 = assay: Test for melanoma B 16; format: in vivo, BDF1 hybrid mice; details: D1-D9; for Number of survivors: day D60; for T/C %: survival time
Procedure: as §1, §2, §3, §4, §5, §6, §7
(d) Test for melanoma B 16 (GERAN et al., Cancer Chemother., 1972, 2, 07-75).
The tests are carried out with BDF1 hybrid mice inoculated by intraperitoneal route with 0.5 ml of a homogenate of melanoma B 16 made up from 1 g of tumour in 10 ml of physiological serum. The compound under test is administered for 9 days (D1-D9) by intraperitoneal route. The positive control for the test is Cis-Platine administered in the same conditions. The number of surviving animals is evaluated on day D60.

leukemia L 1210 = assay: Test for leukemia L 1210 IP/D1 IV; format: in vivo, CDF1 hybrid mice; details: for Number of survivors: day D60; for T/C %: survival time
Procedure: as §1, §2, §3, §4, §5, §6, §7
as §8, with “10^5” for “10^6”, “L 1210” for “P 388”, “5” for “5 successive”, “5-fluorouracile” for “5-fluorouracile which is”, “D60.” for “D30.”
(g) Test for leukemia L 1210 IP/D1 IV. (GERAN et al., Cancer Chemother., 1972, 2, 07-57).
The test is carried out according to the same protocol as that described for test (c), the compound under test being administered by intravenous route only on day D1.

leukemia P 388 [5] = assay: Test for leukemia P 388 IP/D1 IV; format: in vivo, CDF1 hybrid mice; details: for Number of survivors: day D30; for T/C %: survival time
Procedure: as §1, §2, §3, §4, §5, §6, §7, §8
(f) Test for leukemia P 388 IP/D1 IV (GERAN et al., Cancer Chemother., 1972, 2, 07-57).
The test is carried out according to the same protocol as that described for test (a), the compound under test being administered by intravenous route only on day D1.

colic adenocarcinoma 38 [6] = assay: Test for colic adenocarcinoma 38, SC/D1 IV; format: in vivo, BDF1 hybrid mice; details: 50 mg/kg IV
Procedure: as §1, §2, §3, §4
(§9) the antitumour activity is evaluated, in the case of solid tumours, by considering the reduction in the average tumour volume of the treated animals in comparison with the animals of the "negative control" group, according to the formula: [formula]
(§10) A value for T/C of less than 42% indicates an activity for the product at the studied dose.
(h) Test for colic adenocarcinoma 38, SC/D1 IV. (GERAN et al., Cancer Chemother., 1972, 2, 07-57).
(§11) The tests are carried out with BDF1 hybrid mice inoculated by subcutaneous route with a standardized tumour fragment of 3 mm^3. The compound under test is administered by intravenous route only on day D1.
The number of surviving animals is evaluated on day D38.

colic adenocarcinoma 38 [7] = assay: Test for colic adenocarcinoma 38, SC/D2,9 IV; format: in vivo, BDF1 hybrid mice; parameters: Average tumour volume at D32: unit not given beside the values; details: D2 and D9; for Number of survivors: day D32; for T/C % at D32: tumour volume
Procedure: as §1, §2, §3, §4, §9, §10, §11
(i) Test for colic adenocarcinoma 38, SC/D2,9 IV (GERAN et al., Cancer Chemother., 1972, 2, 07-57).
This test is carried out according to the protocol described for test (h), the compound under test being administered by intravenous route on day D2 then on day D9.
The number of surviving animals is evaluated on day D32.

Compound: CCN(CC)CCCNc1ncc(C)c2c1c1cc(O)ccc1n2C [Derivative No. 11, 1-(3-diethylaminopropylamino)-4,5-dimethyl-8-hydroxy-5H-pyrido[4,3-b]indole]
- survival at 312 h (in vivo [1]): 100%
- survival at 192 h (in vivo [2]; 40 mg/kg): 100%
- survival at 192 h (in vivo [2]; 50 mg/kg): 100%
- IC50 ([3]; Mus musculus, L1210, 48 h): 30 nM
- Median day of survival (leukemia P 388 [4]; 2.5 mg/kg IP): 17.25 days
- Variation by weight (g) (leukemia P 388 [4]; 2.5 mg/kg IP): +1.2 g
- Number of survivors (leukemia P 388 [4]; 2.5 mg/kg IP): 0/10
- T/C % (leukemia P 388 [4]; 2.5 mg/kg IP): 149%
- Median day of survival (leukemia P 388 [4]; 5 mg/kg IP): 19.25 days
- Variation by weight (g) (leukemia P 388 [4]; 5 mg/kg IP): +0.7 g
- Number of survivors (leukemia P 388 [4]; 5 mg/kg IP): 0/10
- T/C % (leukemia P 388 [4]; 5 mg/kg IP): 166%
- Median day of survival (leukemia P 388 [4]; 10 mg/kg IP): 23.75 days
- Variation by weight (g) (leukemia P 388 [4]; 10 mg/kg IP): +0.2 g
- Number of survivors (leukemia P 388 [4]; 10 mg/kg IP): 2/10
- T/C % (leukemia P 388 [4]; 10 mg/kg IP): 205%
- Median day of survival (leukemia P 388 [4]; 20 mg/kg IP): 7.4 days
- Variation by weight (leukemia P 388 [4]; 20 mg/kg IP): -2.8 g
- Number of survivors (leukemia P 388 [4]; 20 mg/kg IP): 0/10
- T/C % (leukemia P 388 [4]; 20 mg/kg IP): 64%
- Median day of survival (melanoma B 16; 1.25 mg/kg IP): 32.25 days
- Variation by weight (melanoma B 16; 1.25 mg/kg IP): -2.5 g
- Number of survivors (melanoma B 16; 1.25 mg/kg IP): 0/10
- T/C % (melanoma B 16; 1.25 mg/kg IP): 133%
- Median day of survival (melanoma B 16; 2.5 mg/kg IP): 35.25 days
- Variation by weight (g) (melanoma B 16; 2.5 mg/kg IP): +0.6 g
- Number of survivors (melanoma B 16; 2.5 mg/kg IP): 0/10
- T/C % (melanoma B 16; 2.5 mg/kg IP): 145%
- Median day of survival (melanoma B 16; 5 mg/kg IP): 41.25 days
- Variation by weight (g) (melanoma B 16; 5 mg/kg IP): +0.2 g
- Number of survivors (melanoma B 16; 5 mg/kg IP): 3/10
- T/C % (melanoma B 16; 5 mg/kg IP): 170%
- Median day of survival (melanoma B 16; 10 mg/kg IP): 19.3 days
- Variation by weight (melanoma B 16; 10 mg/kg IP): -1.0 g
- Number of survivors (melanoma B 16; 10 mg/kg IP): 0/10
- T/C % (melanoma B 16; 10 mg/kg IP): 79%
- Median day of survival (leukemia L 1210; 20 mg/kg IV): 11.8 days
- Variation by weight (leukemia L 1210; 20 mg/kg IV): -0.4 g
- Number of survivors (leukemia L 1210; 20 mg/kg IV): 0/10
- T/C % (leukemia L 1210; 20 mg/kg IV): 132%
- Median day of survival (leukemia L 1210; 40 mg/kg IV): 13.3 days
- Variation by weight (leukemia L 1210; 40 mg/kg IV): -0.2 g
- Number of survivors (leukemia L 1210; 40 mg/kg IV): 0/10
- T/C % (leukemia L 1210; 40 mg/kg IV): 149%

Compound: Cc1cnc(NCCCN(C)C)c2c3cc(O)ccc3n(C)c12 [Derivative No. 15, 4,5-dimethyl 1(3-dimethylaminopropylamino)-8-hydroxy-5H-pyrido[4,3-b]indole]
- IC50 [3]: 10 nM
- Median day of survival (leukemia P 388 [4]; 1.25 mg/kg IP): 18.0 days
- Variation by weight (leukemia P 388 [4]; 1.25 mg/kg IP): -1.9 g
- Number of survivors (leukemia P 388 [4]; 1.25 mg/kg IP): 0/10
- T/C % (leukemia P 388 [4]; 1.25 mg/kg IP): 164%
- Median day of survival (leukemia P 388 [4]; 2.5 mg/kg IP): 20.25 days
- Variation by weight (leukemia P 388 [4]; 2.5 mg/kg IP): -1.9 g
- Number of survivors (leukemia P 388 [4]; 2.5 mg/kg IP): 0/10
- T/C % (leukemia P 388 [4]; 2.5 mg/kg IP): 184%
- Median day of survival (leukemia P 388 [4]; 5 mg/kg IP): 26 days
- Variation by weight (leukemia P 388 [4]; 5 mg/kg IP): -2.5 g
- Number of survivors (leukemia P 388 [4]; 5 mg/kg IP): 1/10
- T/C % (leukemia P 388 [4]; 5 mg/kg IP): 236%
- Median day of survival (leukemia P 388 [4]; 10 mg/kg IP): 9.3 days
- Variation by weight (leukemia P 388 [4]; 10 mg/kg IP): -4.1 g
- Number of survivors (leukemia P 388 [4]; 10 mg/kg IP): 0/10
- T/C % (leukemia P 388 [4]; 10 mg/kg IP): 85%
- Median day of survival (leukemia P 388 [5]; 50 mg/kg IV): 17.75 days
- Variation by weight (g) (leukemia P 388 [5]; 50 mg/kg IV): +0.5 g
- Number of survivors (leukemia P 388 [5]; 50 mg/kg IV): 1/10
- T/C % (leukemia P 388 [5]; 50 mg/kg IV): 163%
- Median day of survival (leukemia P 388 [5]; 100 mg/kg IV): 25.75 days
- Variation by weight (leukemia P 388 [5]; 100 mg/kg IV): -0.25 g
- Number of survivors (leukemia P 388 [5]; 100 mg/kg IV): 4/10
- T/C % (leukemia P 388 [5]; 100 mg/kg IV): 236%
- Average tumour volume at D38 (colic adenocarcinoma 38 [6]): 2.73
- Number of survivors (colic adenocarcinoma 38 [6]; day D38): 10/10
- T/C % at D38 (colic adenocarcinoma 38 [6]; tumour volume): 30%
- Average tumour volume at D32 (colic adenocarcinoma 38 [7]; 25 mg/kg IV): 0.0
- Number of survivors (colic adenocarcinoma 38 [7]; 25 mg/kg IV): 10/10
- T/C % at D32 (colic adenocarcinoma 38 [7]; 25 mg/kg IV): 0%
- Average tumour volume at D32 (colic adenocarcinoma 38 [7]; 50 mg/kg IV): 0.0
- Number of survivors (colic adenocarcinoma 38 [7]; 50 mg/kg IV): 10/10
- T/C % at D32 (colic adenocarcinoma 38 [7]; 50 mg/kg IV): 0%
